The results in this text go back to ChEMBL document CHEMBL1201862, “PubChem BioAssay data set” (2004).

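These data come from cells grown in 96-well plates and exposed to compound for 48 hours at five concentrations. The concentration for 50% growth inhibition is given as GI50.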 Calls of active or inactive are those of the source. No stated cut-off is given here; in the data, active = GI50 up to about 1.1 µM and inactive = higher.

Some test systems named below: MOLT-4; CAKI-1; EKVX; MCF7; SF-539; NCI-H522; SK-MEL-28; SK-MEL-2; LOX IMVI; HCT-116; OVCAR-8; OVCAR-4; A498; UO-31; ACHN; SR; MDA-MB-435; T47D; M14; 786-0.
What all share (assay): NCI tumour cell line growth inhibition, 48 h

As for `COc1ccc2c(c1)OCCc1cn[nH]c1-2`, the GI50 with MOLT-4 is 20.8 µM (inactive); in the assay with CAKI-1, < 0.01 µM (active); in the assay with EKVX, 4.44 µM (inactive); in the assay with MCF7, 26.7 µM (inactive); in the assay with SF-539 it was 32.7 µM (inactive); in the assay with NCI-H522, 29 µM (inactive). Besides, the GI50 in the assay on SK-MEL-28 is > 100 µM (inactive); in the assay on SK-MEL-2, 29.4 µM (inactive); in the assay with LOX IMVI, 31.3 µM (inactive); in the assay on HCT-116, 42.4 µM (inactive); in the assay with OVCAR-8 it was 55.6 µM (inactive); with OVCAR-4, 48.6 µM (inactive). Also, the GI50 in the assay with A498 is 28.6 µM (inactive); with UO-31, 32.6 µM (inactive).
As to `CCOC(=O)C1(CO)CSCCSC1`, the GI50 in the assay on MOLT-4, with MCF7, with NCI-H522, in the assay with SK-MEL-28, in the assay on LOX IMVI and with HCT-116 was > 100 µM (inactive) each time. The GI50 in the assay on OVCAR-8, in the assay on ACHN, with SR, with MDA-MB-435, in the assay on A498 and with UO-31 was > 100 µM (inactive) throughout.
`O=C(/C=C/c1ccc(O)c(O)c1)NCCc1ccc(-c2ccccc2)cc1`: the GI50 was 41.3 µM (inactive) with MOLT-4; 40.8 µM (inactive) in the assay with CAKI-1; > 100 µM (inactive) with EKVX; > 100 µM (inactive) with T47D; 32.3 µM (inactive) in the assay on MCF7; > 100 µM (inactive) in the assay with SF-539. Besides, the GI50 is > 100 µM (inactive) with NCI-H522; 33.4 µM (inactive) in the assay on M14; 59.8 µM (inactive) in the assay with SK-MEL-28; > 100 µM (inactive) with SK-MEL-2; 27.3 µM (inactive) with HCT-116; > 100 µM (inactive) in the assay with OVCAR-8. For the same molecule, the GI50 was > 100 µM (inactive) with OVCAR-4, > 100 µM (inactive) with A498, 94.8 µM (inactive) in the assay on UO-31 and 49.7 µM (inactive) in the assay on 786-0.
Turning to `O=C1c2ccccc2C(=O)N1Cc1ccccc1-c1c2nc(c(-c3ccccc3CN3C(=O)c4ccccc4C3=O)c3ccc([nH]3)c(-c3ccccc3CN3C(=O)c4ccccc4C3=O)c3nc(c(-c4ccccc4CN4C(=O)c5ccccc5C4=O)c4ccc1[nH]4)C=C3)C=C2`, the GI50 in the assay on MOLT-4 is > 100 µM (inactive); in the assay on CAKI-1, > 100 µM (inactive); with SF-539, > 100 µM (inactive); in the assay on NCI-H522 it was > 100 µM (inactive); with M14, 31.2 µM (inactive); with SK-MEL-28, > 100 µM (inactive). Further, the GI50 in the assay with SK-MEL-2, in the assay on LOX IMVI, in the assay on HCT-116, in the assay on OVCAR-8, in the assay with ACHN and with SR was > 100 µM (inactive) in each case. For the same molecule, the GI50 in the assay with OVCAR-4, in the assay with A498, with UO-31 and in the assay on 786-0 was > 100 µM (inactive) each time.
On to `O=C1NC(=O)C(CC(C(=O)C(=O)Nc2ccccc2Cl)C(=O)c2ccc3ccccc3c2)C(=O)N1` (stereo not drawn), for which the GI50 in the assay on MOLT-4, in the assay with CAKI-1, with EKVX, with MCF7, with SF-539 and with NCI-H522 was > 100 µM (inactive) in each case. Further, the GI50 with M14, in the assay with SK-MEL-28, in the assay with SK-MEL-2, in the assay with LOX IMVI, in the assay with HCT-116 and in the assay on OVCAR-8 was > 100 µM (inactive) each time. Also, the GI50 was > 100 µM (inactive) in the assay on ACHN; > 100 µM (inactive) with MDA-MB-435; > 100 µM (inactive) with OVCAR-4; 63.7 µM (inactive) with UO-31; > 100 µM (inactive) in the assay on 786-0.
As to `O=CC1OC(=O)c2cc(O)c(O)c(O)c2-c2c(cc(O)c(O)c2O)C(=O)OC1C(O)C(O)CO` (stereo not drawn), the GI50 with MOLT-4 is 22.9 µM (inactive); in the assay on CAKI-1 it was 19.1 µM (inactive); in the assay on EKVX, > 100 µM (inactive); in the assay with MCF7, 19.1 µM (inactive); in the assay on SF-539, > 100 µM (inactive); in the assay with NCI-H522, 31 µM (inactive). The GI50 in the assay with M14 is 35 µM (inactive); with SK-MEL-28, 83.4 µM (inactive); in the assay on SK-MEL-2 it was 15.4 µM (inactive); in the assay on LOX IMVI, 15.4 µM (inactive); in the assay with HCT-116 it was 28.1 µM (inactive); in the assay on OVCAR-8 it was 19.8 µM (inactive). The GI50 with ACHN is 43.6 µM (inactive); with SR, 20.6 µM (inactive); in the assay with MDA-MB-435, 18.3 µM (inactive); with OVCAR-4, 17.4 µM (inactive); in the assay with A498, > 100 µM (inactive); with UO-31, > 100 µM (inactive). The GI50 in the assay on 786-0 is > 100 µM (inactive).
Consider `Cc1cc(NS(=O)(=O)c2ccc(NC(=O)COC(=O)c3cccc4c(=O)c5ccccc5[nH]c34)cc2)no1`, for which the GI50 in the assay with MOLT-4, with CAKI-1, with EKVX, in the assay on SF-539, in the assay on NCI-H522 and in the assay on M14 was > 100 µM (inactive) in each case. The GI50 with SK-MEL-28, in the assay with LOX IMVI, with HCT-116, in the assay on OVCAR-8, with ACHN and in the assay on SR was > 100 µM (inactive) throughout. Besides, the GI50 in the assay on OVCAR-4, in the assay with A498, with UO-31 and in the assay on 786-0 was > 100 µM (inactive) throughout.
For the molecule `COC(=O)C(Cc1nc2ccc(Cl)cc2nc1O)/C(=N/O)C(=O)Nc1cccc(Cl)c1C` (stereo not drawn), the GI50 with MOLT-4 is > 100 µM (inactive); in the assay on CAKI-1, > 100 µM (inactive); in the assay on EKVX, 10.1 µM (inactive); in the assay with SF-539 it was > 100 µM (inactive); with NCI-H522, > 100 µM (inactive); in the assay on M14, > 100 µM (inactive). The GI50 in the assay with SK-MEL-28, with SK-MEL-2, in the assay on LOX IMVI, in the assay on HCT-116, in the assay with OVCAR-8 and in the assay on ACHN was > 100 µM (inactive) in each case. The GI50 in the assay with SR, with OVCAR-4, in the assay with A498, in the assay on UO-31 and in the assay on 786-0 was > 100 µM (inactive) in each case.
As for `O=C1NC2OC(C(O)CO)C(O)C2O1` (stereo not drawn), the GI50 in the assay with MOLT-4, in the assay with CAKI-1, in the assay with EKVX, in the assay with NCI-H522, in the assay with M14 and with SK-MEL-28 was > 100 µM (inactive) each time. The GI50 in the assay with SK-MEL-2, with LOX IMVI, in the assay on HCT-116, in the assay with OVCAR-8, in the assay on ACHN and with SR was > 100 µM (inactive) each time. Moreover, the GI50 in the assay on OVCAR-4, in the assay on A498, with UO-31 and in the assay with 786-0 was > 100 µM (inactive) throughout.
For the molecule `CN1CC[C@@]2(c3cccc(O)c3)CC(=O)/C(=C/c3ccccc3)[C@H]1C2.[O-][Cl+3]([O-])([O-])O`, the GI50 was 2.49 µM (inactive) with MOLT-4; 1.64 µM (inactive) in the assay with CAKI-1; 14.9 µM (inactive) in the assay with EKVX; 2.64 µM (inactive) in the assay on MCF7; 16.9 µM (inactive) with SF-539; 3.93 µM (inactive) with NCI-H522. Moreover, the GI50 is 10.5 µM (inactive) with M14; 11.2 µM (inactive) with SK-MEL-28; 19.8 µM (inactive) in the assay with SK-MEL-2; 1.7 µM (inactive) with LOX IMVI; 3.37 µM (inactive) in the assay with HCT-116; 8.22 µM (inactive) in the assay with OVCAR-8. The GI50 with ACHN is 8.11 µM (inactive); with SR it was 2.61 µM (inactive); in the assay on MDA-MB-435, 3.05 µM (inactive); with OVCAR-4 it was 7.94 µM (inactive); in the assay on A498 it was 9.31 µM (inactive); in the assay with UO-31 it was 12.9 µM (inactive). In addition, the GI50 in the assay on 786-0 was 4.44 µM (inactive).
As for `COc1cccc(N[C@@H]2c3cc4c(cc3C(c3cc(OC)c(O)c(OC)c3)[C@H]3C(=O)OCC32)OCO4)c1` (stereo partly drawn), the GI50 in the assay with MOLT-4 is < 0.01 µM (active); in the assay on CAKI-1 it was 0.197 µM (active); in the assay with EKVX, 2.56 µM (inactive); in the assay with MCF7, 0.207 µM (active); in the assay with SF-539 it was 0.369 µM (active); in the assay on NCI-H522, 1.21 µM (inactive). The GI50 in the assay with SK-MEL-28 is 2.49 µM (inactive); with SK-MEL-2, 3.76 µM (inactive); with LOX IMVI, 0.558 µM (active); in the assay on HCT-116 it was 0.693 µM (active); in the assay with OVCAR-8, 1.22 µM (inactive); in the assay with OVCAR-4 it was 7.55 µM (inactive). Besides, the GI50 with A498 is 0.293 µM (active); with UO-31, 0.302 µM (active).
As for `COc1cc2c(c(OC)c1OC)-c1ccc(SC)c(=O)cc1[C@@H](NCc1ccc(C#N)cc1)CC2`, the GI50 in the assay with MOLT-4 is 0.00578 µM (active); with CAKI-1 it was 0.00701 µM (active); in the assay with EKVX, 0.00726 µM (active); with SF-539, 0.00252 µM (active); with NCI-H522 it was 0.00278 µM (active); with M14, 0.00326 µM (active). For the same molecule, the GI50 in the assay with SK-MEL-28 is 0.00578 µM (active); in the assay with SK-MEL-2, 0.00703 µM (active); in the assay on LOX IMVI, 0.00521 µM (active); in the assay on HCT-116 it was 0.00387 µM (active); in the assay on OVCAR-8, 0.0041 µM (active); in the assay on ACHN it was 0.00612 µM (active). Also, the GI50 with SR is 0.002 µM (active); in the assay with OVCAR-4, 3.74 µM (inactive); with A498, 0.00589 µM (active); in the assay with UO-31, 0.0764 µM (active); in the assay with 786-0, 0.00528 µM (active).
